Results reported in ChEMBL document CHEMBL5634119, “Design and synthesis of 4th generation EGFR inhibitors against human triple (Del19/T790M/C797S) mutation” (Eur J Med Chem, 2023).

Assays:
[1] = biological target: T1, Epidermal growth factor receptor (Homo sapiens, UniProt P00533, C797S/EX19DEL/T790M); assay: Inhibition of EGFR del19/T790M/C797S triple mutant (unknown origin) in presence of ATP by FRET assay
[2] = Cmax in mouse at 5 mg/kg, iv measured upto 24 hrs by LC-MS/MS analysis; format: ADME, organism-based; settings: in vivo
[3] = Toxicity in NOD-SCID mouse xenografted with human PC-9 cells harboring Del19/T790M/C797S triple mutant assessed as clinical signs at 50 mg/kg, sc bid administered for 14 days; format: organism-based; settings: in vivo, 336 h, time 14 day
[4] = Plasma protein binding in mouse assessed as unbound fraction measured after 6 hrs by rapid equilibrium dialysis based LC-MS/MS analysis; format: ADME, cell-free
[5] = Inhibition of AKT phosphorylation in human A-431 cells harboring wild type EGFR incubated for 6 hrs by Western blot analysis; format: cell-based; settings: A-431, 6 h
[6] = biological target: Epidermal growth factor receptor (Homo sapiens, UniProt P00533, C797S/L858R/T790M); assay: Inhibition of EGFR L858R/T790M/C797S triple mutant (unknown origin) in presence of ATP by FRET assay
Chain of Epidermal growth factor receptor (Homo sapiens, UniProt P00533, C797S/L858R/T790M) (P00533 25-1210 T790M/C797S/L858R limits assumed): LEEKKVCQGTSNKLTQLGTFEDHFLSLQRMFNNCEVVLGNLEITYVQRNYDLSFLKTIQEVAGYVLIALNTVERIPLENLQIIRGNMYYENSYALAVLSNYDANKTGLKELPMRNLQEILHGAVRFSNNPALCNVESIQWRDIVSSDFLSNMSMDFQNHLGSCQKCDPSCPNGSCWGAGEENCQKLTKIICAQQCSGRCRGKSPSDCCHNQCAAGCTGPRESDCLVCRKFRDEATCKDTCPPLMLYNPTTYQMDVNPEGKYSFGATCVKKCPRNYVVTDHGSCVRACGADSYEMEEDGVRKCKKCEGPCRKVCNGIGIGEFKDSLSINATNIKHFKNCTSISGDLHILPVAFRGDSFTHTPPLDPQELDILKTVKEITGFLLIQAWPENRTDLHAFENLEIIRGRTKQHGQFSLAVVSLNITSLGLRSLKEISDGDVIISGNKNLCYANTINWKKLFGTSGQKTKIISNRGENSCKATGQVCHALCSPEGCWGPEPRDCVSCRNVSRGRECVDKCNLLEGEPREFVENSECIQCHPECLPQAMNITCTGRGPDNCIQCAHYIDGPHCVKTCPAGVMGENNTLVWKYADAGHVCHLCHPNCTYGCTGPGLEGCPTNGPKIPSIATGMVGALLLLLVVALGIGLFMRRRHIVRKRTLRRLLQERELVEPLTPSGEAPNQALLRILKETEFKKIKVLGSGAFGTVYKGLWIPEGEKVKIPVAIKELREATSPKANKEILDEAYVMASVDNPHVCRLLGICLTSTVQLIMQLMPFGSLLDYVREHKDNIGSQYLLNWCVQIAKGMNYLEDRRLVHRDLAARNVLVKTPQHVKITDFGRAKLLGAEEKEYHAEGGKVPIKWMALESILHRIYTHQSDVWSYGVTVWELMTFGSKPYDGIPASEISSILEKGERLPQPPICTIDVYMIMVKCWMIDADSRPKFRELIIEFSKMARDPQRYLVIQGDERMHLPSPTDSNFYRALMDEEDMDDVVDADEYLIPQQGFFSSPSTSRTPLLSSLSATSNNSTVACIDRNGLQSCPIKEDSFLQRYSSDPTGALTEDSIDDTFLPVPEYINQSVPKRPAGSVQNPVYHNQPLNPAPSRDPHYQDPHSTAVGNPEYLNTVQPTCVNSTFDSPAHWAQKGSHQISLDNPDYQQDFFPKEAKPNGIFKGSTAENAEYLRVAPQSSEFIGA

[7] = Microsomal stability in human liver microsome assessed as parent compound remaining preincubated with compound for 60 mins and measured after 1 hr by HPLC analysis; format: ADME; settings: liver microsomes, time 2 hrs, read-out: Stability
[8] = Microsomal stability in mouse liver microsome assessed as parent compound remaining preincubated with compound for 60 mins and measured after 1 hr by HPLC analysis; format: ADME; settings: liver microsomes, time 2 hrs, read-out: Stability
[9] = Inhibition of ERK phosphorylation in human PC-9 cells harboring Del19/T790M/C797S mutant incubated for 6 hrs by Western blot analysis; format: cell-based; settings: PC-9, 6 h
[10] = Inhibition of EGFR del19/T790M/C797S triple mutant in mouse BAF3 cells assessed as reduction in cell proliferation incubated for 3 days by celltiter-glo assay; format: cell-based; settings: BaF3, 72 h
[11] = Stability in human plasma assessed as parent compound remaining measured after 2 hrs by LC-MS/MS analysis; format: ADME, cell-free; settings: read-out: Stability
[12] = test system: PC-9; assay: Potency index, ratio of Brigatinib IC50 to test compound IC50 for antiproliferative activity against human PC-9 cells harboring EGFR Del19/T790M/C797S mutant incubated for 72 hrs by SRB assay; format: functional
[13] = test system: NCI-H1975; assay: Antiproliferative activity against human NCI-H1975 cells harboring EGFR L858R/T790M/C797S mutant incubated for 72 hrs by SRB assay; format: functional, cell-based; settings: NCI-H1975, 72 h
[14] = test system: HCC827; assay: Antiproliferative activity against human HCC827 cells harboring EGFR Del19 mutant incubated for 72 hrs by SRB assay; format: functional, cell-based; settings: HCC827, 72 h
[15] = biological target: T2, Epidermal growth factor receptor (Homo sapiens, UniProt P00533); assay: Inhibition of EGFR phosphorylation in human A-431 cells harboring wild type EGFR incubated for 6 hrs by Western blot analysis; format: cell-based
T2 sequence (P00533 whole entry): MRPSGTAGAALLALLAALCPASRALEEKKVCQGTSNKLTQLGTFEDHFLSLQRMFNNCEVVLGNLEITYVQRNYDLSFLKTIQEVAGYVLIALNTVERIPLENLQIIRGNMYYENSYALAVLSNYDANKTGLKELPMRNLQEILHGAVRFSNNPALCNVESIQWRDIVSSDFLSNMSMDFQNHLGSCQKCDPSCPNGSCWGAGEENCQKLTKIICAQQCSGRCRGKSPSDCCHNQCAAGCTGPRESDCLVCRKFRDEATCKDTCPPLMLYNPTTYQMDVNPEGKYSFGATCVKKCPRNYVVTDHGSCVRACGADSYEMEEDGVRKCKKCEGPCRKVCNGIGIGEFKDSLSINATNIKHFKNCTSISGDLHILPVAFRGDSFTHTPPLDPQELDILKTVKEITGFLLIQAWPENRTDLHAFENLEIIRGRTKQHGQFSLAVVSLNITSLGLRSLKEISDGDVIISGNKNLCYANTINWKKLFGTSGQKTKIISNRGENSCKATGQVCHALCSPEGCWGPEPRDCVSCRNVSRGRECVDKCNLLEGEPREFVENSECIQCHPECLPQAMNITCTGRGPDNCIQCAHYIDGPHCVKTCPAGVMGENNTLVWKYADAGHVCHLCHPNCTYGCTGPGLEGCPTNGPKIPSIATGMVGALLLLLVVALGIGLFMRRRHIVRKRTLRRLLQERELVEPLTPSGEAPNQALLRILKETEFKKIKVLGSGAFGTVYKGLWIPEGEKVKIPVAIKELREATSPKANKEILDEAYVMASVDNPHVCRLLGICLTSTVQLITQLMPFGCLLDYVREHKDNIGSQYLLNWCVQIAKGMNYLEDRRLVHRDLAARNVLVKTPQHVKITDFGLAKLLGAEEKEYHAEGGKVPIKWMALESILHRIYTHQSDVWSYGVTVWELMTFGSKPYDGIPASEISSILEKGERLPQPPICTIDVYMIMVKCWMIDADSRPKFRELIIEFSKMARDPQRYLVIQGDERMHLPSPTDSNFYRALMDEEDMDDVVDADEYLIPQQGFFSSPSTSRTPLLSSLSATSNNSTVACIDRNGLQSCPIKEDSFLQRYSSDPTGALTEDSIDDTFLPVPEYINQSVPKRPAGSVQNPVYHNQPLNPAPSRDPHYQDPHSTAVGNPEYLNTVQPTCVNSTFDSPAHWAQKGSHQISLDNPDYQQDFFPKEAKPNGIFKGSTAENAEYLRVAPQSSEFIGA

[16] = test system: NCI-H1975; assay: Potency index, ratio of Brigatinib IC50 to test compound IC50 for antiproliferative activity against human NCI-H1975 cells harboring EGFR L858R/T790M/C797S mutant incubated for 72 hrs by SRB assay; format: functional
[17] = test system: NCI-H1975; assay: Antiproliferative activity against human NCI-H1975 cells harboring EGFR L858R/T790M mutant incubated for 72 hrs by SRB assay; format: functional, cell-based; settings: NCI-H1975, 72 h
[18] = Toxicity in NOD-SCID mouse xenografted with human PC-9 cells harboring Del19/T790M/C797S triple mutant assessed as body weight loss at 50 mg/kg, sc bid administered for 14 days; format: organism-based; settings: in vivo, 336 h, time 14 day
[19] = Stability in mouse plasma assessed as parent compound remaining measured after 2 hrs by LC-MS/MS analysis; format: ADME, cell-free; settings: read-out: Stability
[20] = Plasma protein binding in human assessed as unbound fraction measured after 6 hrs by rapid equilibrium dialysis based LC-MS/MS analysis; format: ADME, cell-free
[21] = Oral bioavailability in mouse at 75 mg/kg measured upto 24 hrs by LC-MS/MS analysis; format: ADME, organism-based; settings: in vivo
[22] = Volume of distribution at steady state in mouse at 5 mg/kg, iv measured upto 24 hrs by LC-MS/MS analysis; format: ADME, organism-based; settings: in vivo, read-out: Vdss
[23] = Inhibition of wild type EGFR in mouse BAF3 cells assessed as reduction in cell proliferation incubated for 3 days by celltiter-glo assay; format: cell-based; settings: BaF3, 72 h
[24] = Tmax in mouse at 75 mg/kg, po measured upto 24 hrs by LC-MS/MS analysis; format: ADME, organism-based; settings: in vivo
[25] = AUC (0 to 24 hrs) in mouse at 75 mg/kg, po measured upto 24 hrs by LC-MS/MS analysis; format: ADME, organism-based; settings: in vivo
[26] = test system: A-431; assay: Antiproliferative activity against human A-431 cells harboring wild type EGFR incubated for 72 hrs by SRB assay; format: functional, cell-based; settings: A-431, 72 h
[27] = biological target: T1, Epidermal growth factor receptor; assay: Inhibition of EGFR phosphorylation in human PC-9 cells harboring Del19/T790M/C797S mutant incubated for 6 hrs by Western blot analysis; format: cell-based
[28] = Clearance in mouse at 5 mg/kg, iv measured upto 24 hrs by LC-MS/MS analysis; format: ADME, organism-based; settings: in vivo
[29] = Cmax in mouse at 75 mg/kg, po measured upto 24 hrs by LC-MS/MS analysis; format: ADME, organism-based; settings: in vivo
[30] = biological target: T2, Epidermal growth factor receptor; assay: Inhibition of wild type EGFR (unknown origin) in presence of ATP by FRET assay
[31] = AUC (0 to 24 hrs) in mouse at 5 mg/kg, iv measured upto 24 hrs by LC-MS/MS analysis; format: ADME, organism-based; settings: in vivo
[32] = test system: PC-9; assay: Antiproliferative activity against human PC-9 cells harboring EGFR Del19/T790M/C797S mutant incubated for 72 hrs by SRB assay; format: functional, cell-based; settings: PC-9, 72 h
[33] = Half life in mouse at 75 mg/kg, po measured upto 24 hrs by LC-MS/MS analysis; format: ADME, organism-based; settings: in vivo
[34] = Inhibition of AKT phosphorylation in human PC-9 cells harboring Del19/T790M/C797S mutant incubated for 6 hrs by Western blot analysis; format: cell-based; settings: PC-9, 6 h
[35] = Inhibition of ERK phosphorylation in human A-431 cells harboring wild type EGFR incubated for 6 hrs by Western blot analysis; format: cell-based; settings: A-431, 6 h
[36] = Half life in mouse at 5 mg/kg, iv measured upto 24 hrs by LC-MS/MS analysis; format: ADME, organism-based; settings: in vivo

T1 sequence (P00533 whole entry, looked up, stated change not applied): as the sequence (P00533 whole entry) above

CCN1CCN(c2ccc(Nc3nc(Nc4ccccc4N(C)S(C)(=O)=O)c4cc[nH]c4n3)cc2F)CC1
IC50 [1]: 9.2 nM
Cmax [2]: 4550 ng/mL
Activity [3]: Non-Toxic
fraction unbound at 6 h [4]: 0.926
IC50 [5]: 2160 nM
IC50 [6]: 12.7 nM
remaining at 1 h [7]: 41.9%
remaining at 1 h [8]: 33%
IC50 [9]: 23 nM
IC50 [10]: 10.1 nM
remaining at 2 h [11]: 91.8%
Ratio IC50 [12]: 5.4
IC50 [13]: 202 nM
IC50 [14]: 121 nM
IC50 [15]: 1320 nM
Ratio IC50 [16]: 5.4
IC50 [17]: 178 nM
Activity [18]: Non-Toxic
remaining at 2 h [19]: 97.8%
fraction unbound at 6 h [20]: 0.916
bioavailability [21]: > 100%
Vd [22]: 2 L/kg
IC50 [23]: 667 nM
Tmax [24]: 0.5 h
AUC(0-t) at 24 h [25]: 34000 ng·h/mL
IC50 [26]: 334 nM
IC50 [27]: 9.6 nM
clearance [28]: 85 mL/min/kg
Cmax [29]: 6030 ng/mL
IC50 [30]: > 10000 nM
AUC(0-t) at 24 h [31]: 978 ng·h/mL
IC50 [32]: 155 nM
half-life [33]: 2.3 h
IC50 [34]: 27 nM
IC50 [35]: 3940 nM
half-life [36]: 0.7 h

CCN1CCN(C2CCN(c3ccc(Nc4nc(Nc5ccccc5N(C)S(C)(=O)=O)c5cc[nH]c5n4)cc3F)CC2)CC1
IC50 [1]: 4.2 nM
Cmax [2]: 1560 ng/mL
Activity [3]: Non-Toxic
fraction unbound at 6 h [4]: 0.946
IC50 [5]: 1820 nM
IC50 [6]: 4.7 nM
remaining at 1 h [7]: 57.3%
remaining at 1 h [8]: 24%
IC50 [9]: 26 nM
IC50 [10]: 15.5 nM
remaining at 2 h [11]: 99.1%
Ratio IC50 [12]: 5.4
IC50 [13]: 130 nM
IC50 [14]: 84.2 nM
IC50 [15]: 1180 nM
Ratio IC50 [16]: 5.4
IC50 [17]: 98.8 nM
Activity [18]: Non-Toxic
remaining at 2 h [19]: 97.4%
fraction unbound at 6 h [20]: 0.937
bioavailability [21]: > 100%
Vd [22]: 10.8 L/kg
IC50 [23]: 713 nM
Tmax [24]: 2 h
AUC(0-t) at 24 h [25]: 35800 ng·h/mL
IC50 [26]: 484 nM
IC50 [27]: 7.4 nM
clearance [28]: 53.3 mL/min/kg
Cmax [29]: 5480 ng/mL
IC50 [30]: 10300 nM
AUC(0-t) at 24 h [31]: 1560 ng·h/mL
IC50 [32]: 151 nM
half-life [33]: 3.5 h
IC50 [34]: 7.1 nM
IC50 [35]: 1670 nM
half-life [36]: 1.7 h
